Results as given in ChEMBL document CHEMBL3797128, “N,N-Disubstituted thiourea and urea derivatives: design, synthesis, docking studies and biological evaluation against nitric oxide synthase” (Medchemcomm, 2016).
The source made the active and inactive calls. The calls are words filed in the database; no cut-off is given here.

Experiments:
[1] = biological target: Nitric oxide synthase 1 (Homo sapiens) (UniProt P29475); assay: Inhibition of recombinant nNOS (unknown origin) assessed as L-[3H]-citrulline formation at 1 mM using L-[3H]-arginine as substrate after 30 mins by liquid scintillation spectroscopy
Sequence of Nitric oxide synthase 1 (Homo sapiens) (P29475 whole entry): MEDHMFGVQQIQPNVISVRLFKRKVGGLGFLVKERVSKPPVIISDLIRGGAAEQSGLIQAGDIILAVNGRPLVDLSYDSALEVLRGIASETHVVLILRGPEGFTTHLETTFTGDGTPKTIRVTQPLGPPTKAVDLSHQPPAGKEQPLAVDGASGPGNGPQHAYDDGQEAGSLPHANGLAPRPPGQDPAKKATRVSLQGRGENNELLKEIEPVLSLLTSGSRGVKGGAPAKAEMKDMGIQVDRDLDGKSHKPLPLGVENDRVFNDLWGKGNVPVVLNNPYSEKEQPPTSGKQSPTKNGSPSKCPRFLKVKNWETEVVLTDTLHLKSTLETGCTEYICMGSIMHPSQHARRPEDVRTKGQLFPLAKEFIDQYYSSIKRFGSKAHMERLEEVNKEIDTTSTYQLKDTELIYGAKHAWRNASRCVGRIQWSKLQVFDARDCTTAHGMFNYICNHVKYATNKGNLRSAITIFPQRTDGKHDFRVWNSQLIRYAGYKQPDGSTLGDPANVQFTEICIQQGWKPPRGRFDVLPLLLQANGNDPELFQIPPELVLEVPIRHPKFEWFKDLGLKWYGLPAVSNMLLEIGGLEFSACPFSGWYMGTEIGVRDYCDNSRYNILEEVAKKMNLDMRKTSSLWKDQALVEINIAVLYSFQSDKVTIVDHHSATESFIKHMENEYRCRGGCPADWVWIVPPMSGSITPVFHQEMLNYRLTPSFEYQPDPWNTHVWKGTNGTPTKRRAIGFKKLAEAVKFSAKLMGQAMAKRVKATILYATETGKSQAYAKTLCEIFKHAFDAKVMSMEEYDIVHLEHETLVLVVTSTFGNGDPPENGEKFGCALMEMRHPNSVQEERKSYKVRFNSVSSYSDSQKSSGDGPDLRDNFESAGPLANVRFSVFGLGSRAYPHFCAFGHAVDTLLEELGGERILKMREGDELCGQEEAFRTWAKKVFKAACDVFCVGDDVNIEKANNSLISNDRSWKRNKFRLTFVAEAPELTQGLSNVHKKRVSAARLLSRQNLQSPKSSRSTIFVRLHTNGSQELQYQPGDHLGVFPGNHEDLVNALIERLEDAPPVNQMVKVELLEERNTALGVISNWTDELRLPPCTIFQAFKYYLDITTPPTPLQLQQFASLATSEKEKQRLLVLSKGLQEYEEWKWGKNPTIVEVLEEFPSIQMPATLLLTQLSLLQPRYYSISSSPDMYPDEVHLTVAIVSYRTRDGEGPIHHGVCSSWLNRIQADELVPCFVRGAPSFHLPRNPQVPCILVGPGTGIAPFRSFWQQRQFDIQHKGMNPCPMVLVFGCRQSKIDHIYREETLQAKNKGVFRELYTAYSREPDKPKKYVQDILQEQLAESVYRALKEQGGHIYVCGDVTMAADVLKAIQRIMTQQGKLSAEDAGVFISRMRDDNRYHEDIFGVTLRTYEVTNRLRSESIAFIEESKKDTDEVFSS

[2] = biological target: Nitric oxide synthase, inducible (Homo sapiens) (UniProt P35228); assay: Inhibition of recombinant N-terminal His-tagged human iNOS expressed in Escherichia coli assessed as L-[3H]-citrulline formation at 1 mM using L-[3H]-arginine as substrate after 30 mins by liquid scintillation spectroscopy
Target sequence in this assay (P35228 whole entry): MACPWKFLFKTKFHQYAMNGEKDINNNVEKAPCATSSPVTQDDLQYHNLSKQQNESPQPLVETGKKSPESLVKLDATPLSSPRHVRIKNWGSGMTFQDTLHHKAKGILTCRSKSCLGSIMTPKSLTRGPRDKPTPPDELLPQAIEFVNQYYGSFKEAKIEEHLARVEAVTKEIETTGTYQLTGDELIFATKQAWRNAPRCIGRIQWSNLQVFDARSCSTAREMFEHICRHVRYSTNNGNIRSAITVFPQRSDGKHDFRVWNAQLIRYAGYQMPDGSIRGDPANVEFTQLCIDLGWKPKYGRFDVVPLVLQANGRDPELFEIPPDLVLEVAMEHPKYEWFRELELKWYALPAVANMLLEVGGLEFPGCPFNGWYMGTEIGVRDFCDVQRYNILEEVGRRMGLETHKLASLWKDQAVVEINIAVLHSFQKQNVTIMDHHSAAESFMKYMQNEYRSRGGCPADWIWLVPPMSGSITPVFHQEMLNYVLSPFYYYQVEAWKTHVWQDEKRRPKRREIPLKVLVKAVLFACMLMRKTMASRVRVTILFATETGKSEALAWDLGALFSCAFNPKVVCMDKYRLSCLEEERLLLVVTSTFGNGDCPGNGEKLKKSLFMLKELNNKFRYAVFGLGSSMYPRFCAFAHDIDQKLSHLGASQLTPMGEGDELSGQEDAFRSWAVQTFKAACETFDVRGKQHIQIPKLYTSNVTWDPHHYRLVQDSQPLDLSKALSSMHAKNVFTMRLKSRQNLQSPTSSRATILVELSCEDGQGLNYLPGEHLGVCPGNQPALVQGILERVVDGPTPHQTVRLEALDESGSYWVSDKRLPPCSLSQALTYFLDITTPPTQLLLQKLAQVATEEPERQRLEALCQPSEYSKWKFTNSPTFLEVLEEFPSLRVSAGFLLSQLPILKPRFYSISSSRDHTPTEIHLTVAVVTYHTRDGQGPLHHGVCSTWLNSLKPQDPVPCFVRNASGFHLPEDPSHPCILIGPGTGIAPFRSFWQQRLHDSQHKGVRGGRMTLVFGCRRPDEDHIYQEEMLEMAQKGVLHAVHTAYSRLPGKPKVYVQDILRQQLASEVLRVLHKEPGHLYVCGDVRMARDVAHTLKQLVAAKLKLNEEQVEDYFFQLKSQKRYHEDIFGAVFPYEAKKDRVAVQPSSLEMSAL

[3] = biological target: Nitric oxide synthase, inducible (Homo sapiens) (UniProt P35228); assay: Inhibition of recombinant iNOS (unknown origin) assessed as L-[3H]-citrulline formation using L-[3H]-arginine as substrate after 30 mins by liquid scintillation spectroscopy
Target sequence in this assay (P35228 whole entry, looked up): as the sequence (P35228 whole entry) above

[4] = biological target: Nitric oxide synthase, brain (Homo sapiens) (UniProt P29475); assay: Inhibition of recombinant N-terminal His-tagged human nNOS expressed in Escherichia coli assessed as L-[3H]-citrulline formation using L-[3H]-arginine as substrate after 30 mins by liquid scintillation spectroscopy
Sequence of Nitric oxide synthase, brain (Homo sapiens) (P29475 whole entry, looked up): as the sequence (P29475 whole entry) above

HUVEC = assay: Cytotoxicity against HUVEC cells assessed as reduction in cell viability at >1 mM after 30 mins by MTT assay; format: cell-based; conditions: human, 0.5 h
[5] = biological target: T1, Nitric oxide synthase 3 (Rattus norvegicus) (UniProt Q62600); assay: Inhibition of eNOS in Wistar rat aortic rings assessed as effect on acetylcholine evoked endothelial dependent relaxation of precontracted aortic rings at 100 umol/l after 30 mins
T1 sequence (whole entry): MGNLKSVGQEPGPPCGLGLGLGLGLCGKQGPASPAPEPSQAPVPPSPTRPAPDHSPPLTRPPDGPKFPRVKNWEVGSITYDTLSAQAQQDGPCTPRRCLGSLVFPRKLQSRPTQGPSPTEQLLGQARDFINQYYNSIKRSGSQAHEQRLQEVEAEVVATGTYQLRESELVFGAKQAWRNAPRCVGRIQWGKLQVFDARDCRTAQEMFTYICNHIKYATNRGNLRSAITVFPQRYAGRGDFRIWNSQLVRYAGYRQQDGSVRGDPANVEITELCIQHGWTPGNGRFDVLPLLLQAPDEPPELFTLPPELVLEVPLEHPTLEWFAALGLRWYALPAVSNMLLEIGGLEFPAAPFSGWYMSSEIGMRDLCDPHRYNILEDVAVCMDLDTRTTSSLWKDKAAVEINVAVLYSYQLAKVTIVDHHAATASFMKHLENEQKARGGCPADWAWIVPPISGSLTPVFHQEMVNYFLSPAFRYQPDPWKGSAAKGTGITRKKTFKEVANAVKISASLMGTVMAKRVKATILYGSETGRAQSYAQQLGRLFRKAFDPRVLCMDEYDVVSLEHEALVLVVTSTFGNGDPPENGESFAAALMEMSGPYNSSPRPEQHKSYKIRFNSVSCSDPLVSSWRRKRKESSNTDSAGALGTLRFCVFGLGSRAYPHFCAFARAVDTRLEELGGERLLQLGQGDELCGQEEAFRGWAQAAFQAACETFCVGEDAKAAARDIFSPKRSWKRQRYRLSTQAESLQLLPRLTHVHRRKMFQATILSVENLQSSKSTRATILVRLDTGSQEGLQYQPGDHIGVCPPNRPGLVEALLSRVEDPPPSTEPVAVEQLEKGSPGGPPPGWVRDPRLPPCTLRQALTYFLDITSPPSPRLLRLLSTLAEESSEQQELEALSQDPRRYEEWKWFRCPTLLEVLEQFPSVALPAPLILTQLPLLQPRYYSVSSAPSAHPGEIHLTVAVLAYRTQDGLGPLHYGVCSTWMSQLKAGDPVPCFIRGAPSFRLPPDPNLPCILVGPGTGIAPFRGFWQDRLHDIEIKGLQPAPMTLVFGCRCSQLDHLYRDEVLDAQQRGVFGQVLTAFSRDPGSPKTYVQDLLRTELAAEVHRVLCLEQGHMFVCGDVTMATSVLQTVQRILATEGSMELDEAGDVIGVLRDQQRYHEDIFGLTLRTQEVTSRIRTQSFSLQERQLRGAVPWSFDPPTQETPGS

[6] = biological target: T2, Nitric oxide synthase 3 (Homo sapiens) (UniProt P29474); assay: Inhibition of eNOS in HUVEC cells assessed as A23187 stimulated nitric oxide production at 100 umol/L preincubated for 30 mins using L-arginine as substrate for 5 mins followed A23187 addition measured after 30 mins by DAF2 dye based spectrofluorimetry; format: cell-based
T2 sequence (whole entry): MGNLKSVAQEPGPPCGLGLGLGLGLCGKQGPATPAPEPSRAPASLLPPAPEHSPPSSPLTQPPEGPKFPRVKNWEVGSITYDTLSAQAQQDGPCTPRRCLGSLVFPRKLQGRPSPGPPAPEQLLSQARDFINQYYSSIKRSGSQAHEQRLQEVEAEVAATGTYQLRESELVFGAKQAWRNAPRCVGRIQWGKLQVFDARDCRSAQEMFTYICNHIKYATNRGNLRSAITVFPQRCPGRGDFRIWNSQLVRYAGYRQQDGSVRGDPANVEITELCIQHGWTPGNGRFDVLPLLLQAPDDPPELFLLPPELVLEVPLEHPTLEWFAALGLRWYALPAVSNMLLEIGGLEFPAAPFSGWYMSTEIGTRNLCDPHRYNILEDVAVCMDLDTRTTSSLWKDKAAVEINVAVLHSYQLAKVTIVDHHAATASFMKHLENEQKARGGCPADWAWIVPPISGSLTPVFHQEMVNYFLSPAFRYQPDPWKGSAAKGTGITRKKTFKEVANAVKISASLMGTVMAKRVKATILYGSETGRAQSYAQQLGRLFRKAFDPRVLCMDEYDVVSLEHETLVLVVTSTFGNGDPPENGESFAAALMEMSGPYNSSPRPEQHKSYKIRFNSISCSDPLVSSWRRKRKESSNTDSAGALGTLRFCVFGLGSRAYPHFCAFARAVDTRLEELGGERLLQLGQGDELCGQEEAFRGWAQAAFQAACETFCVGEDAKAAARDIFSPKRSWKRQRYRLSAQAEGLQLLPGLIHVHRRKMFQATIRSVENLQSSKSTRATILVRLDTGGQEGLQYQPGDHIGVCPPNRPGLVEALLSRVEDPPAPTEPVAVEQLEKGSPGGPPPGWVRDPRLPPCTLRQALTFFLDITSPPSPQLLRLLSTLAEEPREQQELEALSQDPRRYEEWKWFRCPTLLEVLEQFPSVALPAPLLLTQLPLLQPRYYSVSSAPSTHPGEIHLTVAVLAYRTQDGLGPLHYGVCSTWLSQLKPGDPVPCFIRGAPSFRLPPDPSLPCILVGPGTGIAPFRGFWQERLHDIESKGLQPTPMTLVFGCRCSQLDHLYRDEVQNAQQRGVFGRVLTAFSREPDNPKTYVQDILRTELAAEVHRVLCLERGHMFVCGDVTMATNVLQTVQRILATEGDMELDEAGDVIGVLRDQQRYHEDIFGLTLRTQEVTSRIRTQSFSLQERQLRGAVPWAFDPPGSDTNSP

[7] = biological target: T1, Nitric oxide synthase 3 (Rattus norvegicus); assay: Inhibition of eNOS in Wistar rat aortic rings assessed as suppression of acetylcholine evoked endothelial dependent relaxation of precontracted aortic rings at 100 umol/l after 30 mins

CCNC(=O)NCCC(O)c1cc(OC)ccc1N (stereo unspecified) was tested, and the inhibition [1] was 43% and the inhibition [2] was 26.6%.
CCNC(=O)NCCC(O)c1cc(Cl)ccc1N (stereo unspecified) gave an inhibition [1] of 15.2% and an inhibition [2] of 33.9%.
Compound Nc1ccc(Cl)cc1C(=O)CCNC(=O)C1CC1 has an inhibition [2] of 5.37%.
CCCCC(=O)NCCC(=O)c1cc(OC)ccc1N showed an inhibition [2] of 14.1%.
With CCCNC(=O)NCCC(O)c1cc(Cl)ccc1N (stereo unspecified) the inhibition [1] was 23.8% and the inhibition [2] was 19.6%.
COc1ccc(N)c(C(=O)CCNC(=O)C2CCCCC2)c1 gave an inhibition [2] of 9.24%.
In the case of CNC(=S)NCCC(O)c1cc(Cl)ccc1N (stereo unspecified), the IC50 [3] is reported as greater than 1000 µM, the inhibition [1] is reported as 70.5% and the inhibition [2] is reported as 22.1%. It also gave an IC50 [4] of 710 µM.
In the case of CCCNC(=S)NCCC(O)c1cc(OC)ccc1N (stereo unspecified), the inhibition [1] is reported as 6.02% and the inhibition [2] is reported as 25.4%.
COc1ccc(N)c(C(=O)CCNC(=O)c2ccccc2)c1 was tested, and the inhibition [2] was 10.9%.
CCNC(=O)NCCC(O)c1ccccc1N (stereo unspecified) was tested, and the inhibition [1] was 7.81% and the inhibition [2] was 18.3%.
COc1ccc(N)c(C(=O)CCNC(=O)C2CC2)c1 showed an inhibition [2] of 2.66%.
In the case of CCNC(=O)NCCC(=O)c1cc(Cl)ccc1N, the inhibition [1] is reported as 9.86% and the inhibition [2] is reported as 78.6%.
For CNC(=S)NCCC(O)c1ccccc1N (stereo unspecified), the IC50 [3] was greater than 1000 µM, the inhibition [1] was 70.2% and the inhibition [2] was 20.7%. It also gave an IC50 [4] of 350 µM.
In the case of CCCNC(=O)NCCC(O)c1cc(OC)ccc1N (stereo unspecified), the inhibition [1] is reported as 15.8% and the inhibition [2] is reported as 14.7%.
COc1ccc(N)c(C(O)CCNC(=O)Nc2ccccc2)c1 (stereo unspecified) gave an inhibition [1] of 12.1% and an inhibition [2] of 12.3%.
CC(=O)NCCC(=O)c1cc(Cl)ccc1N was tested, and the inhibition [2] was 19.7%.
COc1ccc(N)c(C(=O)CCNC(C)=O)c1 showed an inhibition [2] of 30.7%.
CNC(=S)NCCC(O)c1cc(OC)ccc1N (stereo unspecified) was tested, and the IC50 [3] was 180 µM, the inhibition [1] was 80.5% and the Activity (HUVEC) was 20%. The inhibition [2] was 76.5%, the IC50 [4] was 130 µM and the inhibition [5] was “inactive”. For the same compound, the inhibition [6] was “inactive”.
With CCCC(=O)NCCC(=O)c1cc(OC)ccc1N the inhibition [2] was 7.35%.
Work on COc1ccc(N)c(C(=O)CCNC(=O)C2CCC2)c1 yielded an inhibition [2] of 0.01%.
CCNC(=S)NCCC(O)c1ccccc1N (stereo unspecified) gave an inhibition [1] of 44.8% and an inhibition [2] of 19.4%.
Work on Nc1ccc(Cl)cc1C(O)CCNC(=O)Nc1ccccc1 (stereo unspecified) yielded an inhibition [1] of 38.6% and an inhibition [2] of 3.11%.
In the case of COC(=O)[C@@H](N)CCCNC(=N)N[N+](=O)[O-], the inhibition [7] is reported as “Active”.
CCCNC(=O)NCCC(O)c1ccccc1N (stereo unspecified) gave an inhibition [1] of 7% and an inhibition [2] of 19%.
With CNC(=S)NCCC(=O)c1cc(OC)ccc1N the inhibition [1] was 46% and the inhibition [2] was 78.2%.
For CCNC(=S)NCCC(O)c1cc(Cl)ccc1N (stereo unspecified), the IC50 [3] was 800 µM, the inhibition [1] was 70.6% and the inhibition [2] was 60.4%. For the same compound, the IC50 [4] was 770 µM.
Compound Nc1ccccc1C(O)CCNC(=O)Nc1ccccc1 (stereo unspecified) has an inhibition [1] of 17.7% and an inhibition [2] of 27.9%.
Work on COc1ccc(N)c(C(=O)CCNC(=O)C2CCCC2)c1 yielded an inhibition [2] of 0.61%.
With CCCNC(=S)NCCC(O)c1ccccc1N (stereo unspecified) the IC50 [3] was greater than 1000 µM, the inhibition [1] was 51.7% and the inhibition [2] was 31.1%. The IC50 [4] was 880 µM.
Work on CCCNC(=S)NCCC(O)c1cc(Cl)ccc1N (stereo unspecified) yielded an IC50 [3] of 860 µM, an inhibition [1] of 32.4% and an inhibition [2] of 55%. For the same compound, the IC50 [4] was greater than 1000 µM.
Nc1ccc(Cl)cc1C(=O)CCNC(=O)c1ccccc1 gave an inhibition [2] of 26.6%.
For CCC(=O)NCCC(=O)c1cc(OC)ccc1N, the inhibition [2] was 0.24%.
